Measurements: ChEMBL document CHEMBL3507680, “University of Dundee, Gates Library screen for HepG2 cell viability”

Experiment: Human HepG2 cell viability assay in 384 well format
Type: toxicity, cell-based
Set-up: dose 125 nL, time 70.5 hour; cytotoxicity at 70.5 h: concentration not given beside the values
Conditions: HepG2 cells, read-out: Inhibition

SMILES: O=C(CCSc1ccccc1F)N1CCN(c2cnccn2)CC1
- cytotoxicity at 70.5 h: 11%

SMILES: COCCC(=O)N1CCC2(CC1)CN(S(C)(=O)=O)Cc1ccccc1O2
- cytotoxicity at 70.5 h: -2.27%

SMILES: O=S(=O)(Nc1ccccn1)c1cc(Cl)cc2c1OCC2
- cytotoxicity at 70.5 h: 4.53%

SMILES: CCOc1ccc2[nH]c(=O)c(CN(C)CCc3cn[nH]c3)cc2c1
- cytotoxicity at 70.5 h: 4.91%

SMILES: CCNc1ncc(C(=O)NC2CCOCC2)cn1
- cytotoxicity at 70.5 h: -5.98%

SMILES: COc1ccccc1OCCNC(=O)N1CCC(n2cncn2)CC1
- cytotoxicity at 70.5 h: -4.48%

SMILES: CC(C)c1ccc(CNC(C)c2ccc(S(=O)(=O)N(C)C)cc2)cc1 (stereo not given)
- cytotoxicity at 70.5 h: -2.78%

SMILES: CN1CCCC(CCCc2cccnc2)(C(N)=O)C1 (stereo not given)
- cytotoxicity at 70.5 h: -3.41%

SMILES: CC(C)OCCC(=O)NCCC(=O)N1CCN(c2ccccn2)CC1
- cytotoxicity at 70.5 h: -3.84%

SMILES: Cc1nc(-c2ccsc2)ccc1C(=O)NCCN1CCN(C)CC1
- cytotoxicity at 70.5 h: 0.295%

SMILES: COCCNC(=O)C1(c2ccc(C)c(OC)c2)CCCC1
- cytotoxicity at 70.5 h: -10.9%

SMILES: CCOCC(O)CN1CCN(C(=O)c2ccccc2Cl)CC1 (stereo not given)
- cytotoxicity at 70.5 h: -2.72%

SMILES: Cc1occc1C(=O)NCc1cccnc1N(C)C
- cytotoxicity at 70.5 h: -14.4%

SMILES: O=C(CNc1ccc(OCC2CCOCC2)cc1)NCc1ccco1
- cytotoxicity at 70.5 h: -20.8%

SMILES: N#Cc1ccnc(N2CCN(CC(O)c3ccccc3)CC2)c1 (stereo not given)
- cytotoxicity at 70.5 h: -8.1%

SMILES: Cn1nc2c(cc1=O)CN(c1ncnc3sccc13)CC2
- cytotoxicity at 70.5 h: 5.63%

SMILES: Cc1ccc2[nH]c(CN(C)Cc3n[nH]c4c3CCC4)nc2c1
- cytotoxicity at 70.5 h: -3.51%

SMILES: CCN1CC2(CCN(CC3COCCO3)CC2)OC1=O (stereo not given)
- cytotoxicity at 70.5 h: 44.4%

SMILES: O=C(NC1CCCCC1)c1ccc(COCC(F)(F)F)o1
- cytotoxicity at 70.5 h: 19.8%

SMILES: Cn1nc(N2CCCC(C(=O)Nc3nccs3)C2)ccc1=O (stereo not given)
- cytotoxicity at 70.5 h: 18%

SMILES: O=C(C1CCOCC1)N1C[C@H]2CCC[C@@]2(COc2cccnc2)C1
- cytotoxicity at 70.5 h: -1.29%

SMILES: CN1C(=O)CC(c2ccccc2)C12CCN(c1ncc(F)cn1)CC2 (stereo not given)
- cytotoxicity at 70.5 h: -1.24%

SMILES: N#Cc1cccnc1N1CCCN(C(=O)CCc2cccs2)CC1
- cytotoxicity at 70.5 h: -4.16%

SMILES: CCc1nc(C2CCCN2C(=O)CCc2ccc3c(c2)OCO3)no1 (stereo not given)
- cytotoxicity at 70.5 h: -24.9%

SMILES: Cc1c[nH]c(CN(C)C(=O)[C@@]23CNC[C@@H]2CN(c2ncccn2)C3)n1
- cytotoxicity at 70.5 h: -14%

SMILES: Nc1cc(-c2c[nH]nc2C2CCN(C(=O)C3CCCC3)C2)ccn1 (stereo not given)
- cytotoxicity at 70.5 h: 5.65%

SMILES: Cn1cc(C2CCCN2C(=O)CCCOc2ccc(F)cc2)cn1 (stereo not given)
- cytotoxicity at 70.5 h: 15.6%

SMILES: Cc1nc(CN2CCO[C@H]3CN(C(=O)c4cccn4C)C[C@H]32)cs1
- cytotoxicity at 70.5 h: 5.54%

SMILES: CC(=O)c1cccc(S(=O)(=O)NCCNC(=O)c2snnc2C)c1
- cytotoxicity at 70.5 h: 7.7%

SMILES: CC(C)c1nnsc1CNC(=O)C1CCCN(C(=O)N(C)C)C1 (stereo not given)
- cytotoxicity at 70.5 h: -11.2%

SMILES: COCCN1CCN(Cc2ccco2)Cc2ccc(C)nc21
- cytotoxicity at 70.5 h: 2.35%

SMILES: COc1ccc2c(ccn2CC(=O)NC[C@@H]2CCCN3CCCC[C@H]23)c1
- cytotoxicity at 70.5 h: -7.27%

SMILES: COCC1COCCC12CCN(S(=O)(=O)c1ccc(C)cc1)CC2 (stereo not given)
- cytotoxicity at 70.5 h: -4.01%

SMILES: Cn1cc(CNC(=O)C2COCC(=O)N2Cc2ccccc2)cn1 (stereo not given)
- cytotoxicity at 70.5 h: 2.62%

SMILES: COCCCN(C)S(=O)(=O)c1ccc(C(F)(F)F)cc1C#N
- cytotoxicity at 70.5 h: -10.6%

SMILES: COc1ccsc1C(=O)Nc1cc(CN2CCOCC2)ccc1C
- cytotoxicity at 70.5 h: 0.784%

SMILES: O=C([C@@H]1Cc2[nH]cnc2CN1CC1CC1)N1CCCC1
- cytotoxicity at 70.5 h: 9.33%

SMILES: Cc1ccc(NC(=O)NC(C)c2nc[nH]n2)cc1Cl (stereo not given)
- cytotoxicity at 70.5 h: -3.17%

SMILES: O=C(CC1CCCC1)N[C@H]1CN(Cc2c[nH]cn2)C[C@@H]1C1CC1
- cytotoxicity at 70.5 h: 20.4%

SMILES: CC(C)C(NC(=O)N1CCS(=O)(=O)CC1)c1ccccc1Cl (stereo not given)
- cytotoxicity at 70.5 h: -5.93%

SMILES: Cc1ccccc1C(C(=O)N(C)CCc1cn[nH]c1)N(C)C (stereo not given)
- cytotoxicity at 70.5 h: -7.29%

SMILES: CN(CCn1cnc(-c2ccccc2)c1-c1ncc[nH]1)S(C)(=O)=O
- cytotoxicity at 70.5 h: 7.51%

SMILES: Cc1cccc(CO[C@H]2CN(c3nnc(C)s3)[C@@H]3CCCO[C@H]23)n1
- cytotoxicity at 70.5 h: 0.219%

SMILES: CN(C)CC1CN(C(=O)CCc2ccccc2)Cc2nccn2C1 (stereo not given)
- cytotoxicity at 70.5 h: 1.84%

SMILES: CC(NC(=O)c1ccoc1)C(=O)N(C)Cc1cccc(C(F)(F)F)c1 (stereo not given)
- cytotoxicity at 70.5 h: 9.42%

SMILES: CCOCCn1c(=O)[nH]c2cc(C(=O)N(C)Cc3nc(C)cs3)ccc21
- cytotoxicity at 70.5 h: -12.4%

SMILES: O=C(NCCNc1cnccn1)C1CCN(C(=O)N2CCCC2)CC1
- cytotoxicity at 70.5 h: 2.17%

SMILES: COc1cc(CNCCc2cc(F)cc3c2OCOC3)cc(OC)c1
- cytotoxicity at 70.5 h: 1.52%

SMILES: COc1ccc(-n2cccn2)c(CN2CCOCC(CN(C)C)C2)c1 (stereo not given)
- cytotoxicity at 70.5 h: 18.8%

SMILES: N[C@@H]1CCC[C@@H](Oc2ccc(F)cc2Oc2cccc(F)c2)[C@@H]1O
- cytotoxicity at 70.5 h: -1.82%

SMILES: Cc1nc2n(n1)CC(NCCCc1nc(-c3cccs3)no1)CC2 (stereo not given)
- cytotoxicity at 70.5 h: 4.3%

SMILES: O=C(Nc1cccnc1-n1cc(Cl)cn1)C1CCCCC1
- cytotoxicity at 70.5 h: -26.8%

SMILES: Cc1cc(CC(=O)N2CCN(CC(C)C)[C@@H]3CS(=O)(=O)C[C@@H]32)ccc1F
- cytotoxicity at 70.5 h: 7.77%

SMILES: COc1cc(CN2CCCCCC2c2cccs2)cc(OC)c1OC (stereo not given)
- cytotoxicity at 70.5 h: -9.84%

SMILES: CCc1ccc(-c2nn3c(nc2=O)-c2ccccc2NC3C(=O)O)cc1 (stereo not given)
- cytotoxicity at 70.5 h: -10.4%

SMILES: Cn1cc(CCC(=O)N2CCN(Cc3ccncc3)CC2)cn1
- cytotoxicity at 70.5 h: 2.28%

SMILES: CC(=O)N1[C@H](CN(C)C)C[C@@H]2CN(C(=O)Cc3cccs3)CC[C@@H]21
- cytotoxicity at 70.5 h: -21.3%

SMILES: CN1CC[C@]2(CN(C(=O)[C@H]3CCCO3)C[C@H]2c2ccccc2)C1=O
- cytotoxicity at 70.5 h: -2.45%

SMILES: CCN1CCN(Cc2csc(C(C)C)n2)CC1
- cytotoxicity at 70.5 h: -8.86%

SMILES: O=C(NCCNC(=O)c1ccc(Cl)cc1)NCCn1cccc1
- cytotoxicity at 70.5 h: -4.35%

SMILES: Cc1nnc2sc(-c3cc(C(C)C)n[nH]3)nn12
- cytotoxicity at 70.5 h: -4.97%

SMILES: CN(C)C(=O)[C@H]1C[C@@H]2CN(c3ncccn3)C[C@H]1O2
- cytotoxicity at 70.5 h: -4.11%

SMILES: COCCNc1ccc(CNC(=O)C2COc3ccccc32)cc1 (stereo not given)
- cytotoxicity at 70.5 h: 19.2%

SMILES: O=C(c1cnn[nH]1)N1CCCC1c1nc2cc(F)ccc2[nH]1 (stereo not given)
- cytotoxicity at 70.5 h: -12.1%

SMILES: COc1cc(C2SCC(=O)Nc3[nH]ncc32)cc(OC)c1OC (stereo not given)
- cytotoxicity at 70.5 h: -5.35%

SMILES: CCCc1cc(N(CCOC)CC(F)F)n2ncnc2n1
- cytotoxicity at 70.5 h: 18.6%

SMILES: CC(C)CNC(=O)CNC(=O)NCC(O)c1ccc2ccccc2c1 (stereo not given)
- cytotoxicity at 70.5 h: -3.3%

SMILES: Fc1cnc(N2CCCC3(CN(Cc4ccncc4)CCO3)C2)nc1 (stereo not given)
- cytotoxicity at 70.5 h: -6.32%

SMILES: CC(CCNC(=O)NCCc1ccc(S(N)(=O)=O)cc1)c1ccccc1 (stereo not given)
- cytotoxicity at 70.5 h: -8.25%

SMILES: Cc1oc(-c2cc(F)cc(F)c2)nc1CN1C[C@@H](C)NC[C@@H]1C
- cytotoxicity at 70.5 h: -11.7%

SMILES: CN(C)c1nc2c(c(N(C)Cc3n[nH]c4c3CCCC4)n1)CCNCC2
- cytotoxicity at 70.5 h: -7.02%

SMILES: CS(=O)(=O)N1CCCC(c2cncc(Nc3ccccn3)n2)C1 (stereo not given)
- cytotoxicity at 70.5 h: -7.64%

SMILES: O=C(c1ccncc1F)N1Cc2nc(CN3CCCCC3)oc2C1
- cytotoxicity at 70.5 h: -8.64%

SMILES: CC(=O)c1ccc(-c2cc(C(F)(F)F)cc(N(C)C)n2)cc1
- cytotoxicity at 70.5 h: -7.82%

SMILES: CC(=O)N1CCCn2nc(CNS(=O)(=O)N3CCCCCC3)cc2C1
- cytotoxicity at 70.5 h: -10.6%

SMILES: CC1(Cc2cccnc2)NCCc2[nH]cnc21 (stereo not given)
- cytotoxicity at 70.5 h: 10.5%

SMILES: CCC(C)CN1CCC(n2cc(C3CCCC3)nn2)CC1 (stereo not given)
- cytotoxicity at 70.5 h: 0.72%

SMILES: O=S(=O)(NCc1ccc(S(=O)(=O)N2CCCC2)s1)c1ccc(F)cc1Cl
- cytotoxicity at 70.5 h: -1.37%

SMILES: CCN1CCN(c2ccc(CNC(=O)c3ccc(Cl)o3)cn2)CC1
- cytotoxicity at 70.5 h: 3.11%

SMILES: CCC(=O)N1CCC2(CCC(N3CCCC3)c3ccccc32)CC1 (stereo not given)
- cytotoxicity at 70.5 h: -6.38%
